In PMC10693528, “A high-throughput metabolomics in vitro platform for the characterization of hepatotoxicity” (Cell Biology and Toxicology, 2023):

Test system: HepG2 cells
Test: LC-MS/MS targeted intracellular metabolomics
Format: cell-based, human
Conditions: Suppl Fig 9; C3 (EC15 ATP), 48 h; Bezafibrate lines = Plates 1-6 in order
Procedure: Metabolite profiling of cells was performed directly in the same 96-well plate according to a standardized protocol described below. In order to prevent any interaction with the cell material, the automatic sampler was adjusted to pick up the sample from the supernatant at a specified depth avoiding the contact with the bottom of the plate.
After the initial quenching step (50 μL isopropanol 80%), additional 70 μL of isopropanol 80%, containing internal standards (methionine-D3, tryptophan-D5, arginine-13C6-15N4, Boc-Ala-Gly-Gly-Gly-OH, coenzyme Q1, coenzyme Q2, coenzyme Q4) were added to each well. The internal standards were used for quality control by visual inspection (signal intensity, peak shape, retention time); they were not used for normalization. Afterwards, plates were shaken for 5 min, 750 rpm at 20 °C, and placed for 30 s in the ultrasonic device. Then, the plates were centrifugated for 10 min, at 5485 g, 15 °C. Further, 2.5 μL of the extract were injected each for reversed-phase and hydrophilic interaction liquid chromatography followed by MS/MS detection (AB Sciex QTrap 6500+) using the positive and negative ionization mode. For reverse-phase high-performance liquid chromatography (RP-HPLC, Ascentis Express C18, 5 cm × 2.1 mm, 2.7 μm Supelco), gradient elution was performed with mobile phase A, water/methanol/0.1 M ammonium formate (1:1:0.02, w/w), and B, methyl-tert-butylether/2-propanol/methanol/0.1 M ammonium formate/formic acid (4:2:1:0.07:0.035, w/w) 5.9 min linear gradient: 0 min 100% A, 0.5 min 75% A, 5.9 min 10% A; followed by 0% A until 6.7 min; re-equilibration at 100% A until 7.7 min; flow rate 600 μL/min; column temperature 40 °C HILIC (ZIC-HILIC, 2.1 × 100 mm, 3.5 μm, Supelco) gradient elution was performed with mobile phase C, acetonitrile/water (99:1, v/v) with 0.2% (v) acetic acid, and D, 7 mM ammonium acetate with 0.2% (v) acetic acid (5.0 min linear gradient: 0 min 100% C, 5 min 10% C; followed by a linear gradient back to 100%C until 6.5 min; re-equilibration at 100% C until 7.5 min; flow rate 600 μL/min; column temperature 40 °C.). Two LC-MS systems with identical configuration were used for the analysis. Normalization to lyophilized reference samples (see below) was used to compensate for variation from between analytical batches. The efficiency of this normalization procedure was checked by principal component analysis (PCA), confirming that Pool samples from different analytical batches clustered together.
Reference samples derived from lyophilized untreated HepG2 cells (technical control samples) were measured in parallel throughout the entire analytical process. Data were normalized against the median of these lyophilized HepG2 cells reference samples, to give normalized ratios (performed for each sample per metabolite). This compensated for inter- and intra-instrumental variation. To correct for small differences in cell numbers within and between different treatment groups, data were also normalized to the within sample median, as described in detail by (Ramirez et al. [2018]). For intracellular metabolomic analysis, the median of each sample was calculated across all the 221 measured metabolites.
To generate metabolic profiles for the different treatments, heteroscedastic t test (Welch test) was applied to log-transformed normalized metabolite data to compare treated groups with their respective controls.
Principal component analysis (PCA) and hierarchical clustering (HCA) analyses were performed using R software environment (https://www.r-project.org/). PCA was conducted using the ropls package (Thévenot et al. [2015]) with log10-transformed input data and standard scaling. HCA was performed using the pvclust package (Suzuki et al. [2019]), (https://CRAN.R-project.org/package=pvclust). Input: log10(Ratio), clustering method: Ward D2, distance method: Manhattan, bootstrapping: 10000 times.

O=C(O)c1cc(Oc2ccc(C(F)(F)F)cc2Cl)ccc1[N+](=O)[O-] [Acifluorfen]
2'-Deoxycytidine level vs controls: 0.56
5-Hydroxytryptophan level vs controls: 0.74
Carnitine level vs controls: 0.98
Ceramide (d18:1.C20:0) level vs controls: 0.74
Ceramide (d18:1.C24:1) level vs controls: 0.72
Ceramide (d18:1.C24:2) level vs controls: 0.68
Ceramide (d18:2.C24:1) level vs controls: 0.64
Choline plasmalogen (C36:4) level vs controls: 0.75
Choline plasmalogen (C36:5) level vs controls: 0.70
Creatine level vs controls: 0.87
Glycerol-3-phosphate level vs controls: 0.90
Hexanoylcarnitine level vs controls: 0.70
Ketoleucine level vs controls: 0.80
Lysophosphatidylcholine (C14:0) level vs controls: 1.75
Lysophosphatidylcholine (C16:0) level vs controls: 1.17
Lysophosphatidylcholine (C16:1) level vs controls: 1.22
Lysophosphatidylcholine (C20:4) level vs controls: 0.94
Lysophosphatidylcholine (C24:0) level vs controls: 1.25
Lysophosphatidylcholine (C24:1) level vs controls: 1.00
Lysophosphatidylethanolamine (C16:0) level vs controls: 1.67
Lysophosphatidylethanolamine (C18:0) level vs controls: 1.69
Lysophosphatidylethanolamine (C18:1) level vs controls: 1.09
N-Acetylaspartate level vs controls: 1.50
Pantothenic acid level vs controls: 0.68
Phosphatidylcholine (C32:0) level vs controls: 0.82
Phosphatidylcholine (C34:1) level vs controls: 0.81
Phosphatidylcholine (C34:3) level vs controls: 1.23
Phosphatidylcholine (C36:1) level vs controls: 0.76
Phosphatidylcholine (C36:2) level vs controls: 0.78
Phosphatidylcholine (C36:3) level vs controls: 0.82
Phosphatidylcholine (C36:4) level vs controls: 0.66
Phosphatidylcholine (C36:5) level vs controls: 0.71
Phosphatidylethanolamine (C36:3) level vs controls: 0.86
Phosphatidylethanolamine (C38:3) level vs controls: 1.05
Phosphatidylethanolamine (C38:5) level vs controls: 0.82
Phosphatidylethanolamine (C38:6) level vs controls: 0.91
Phosphatidylethanolamine (C40:7) level vs controls: 0.68
Phosphocholine level vs controls: 0.79
Propionylcarnitine level vs controls: 0.79
S-Adenosylhomocysteine level vs controls: 0.84
Sphingomyelin (d32:2) level vs controls: 0.65
Sphingomyelin (d33:1) level vs controls: 0.93
Sphingomyelin (d34:0) level vs controls: 1.12
Sphingomyelin (d35:1) level vs controls: 0.85
Sphingomyelin (d36:1) level vs controls: 0.84
Sphingomyelin (d36:2) level vs controls: 0.76
Sphingomyelin (d37:1) level vs controls: 0.89
Sphingomyelin (d38:1) level vs controls: 0.89
Sphingomyelin (d38:2) level vs controls: 0.83
Sphingomyelin (d39:1) level vs controls: 1.01
Sphingomyelin (d40:2) level vs controls: 0.87
Sphingomyelin (d41:2) level vs controls: 0.90
Sphingomyelin (d42:2) level vs controls: 0.85
Taurine level vs controls: 0.61
Triacylglycerol (C34:1.C18:3) level vs controls: 1.73
Triacylglycerol (C34:2.C18:0) level vs controls: 2.66
Triacylglycerol (C34:2.C18:1) level vs controls: 2.04
Triacylglycerol (C36:4.C16:0) level vs controls: 1.86
Triacylglycerol (C36:4.C18:0) level vs controls: 2.14
